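Grown in 96-well plates, cells were treated for 48 hours with each compound at five concentrations. Insufficient inhibition: endpoint recorded as highest concentration tested. GI50 is the concentration that inhibits growth by half.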 Activity calls are given as the source filed them. Cut-off read from the data, not from the text of the source: active = GI50 up to about 1.1 µM and inactive = higher.
Columns and labels:
Test in all cases: growth of human tumour cells (NCI), 48 h
NCI-H522 = system: NCI-H522
SW-620 = system: SW-620
HCT-15 = system: HCT-15
DMS-273 = system: DMS-273
HCT-116 = system: HCT-116
HOP-92 = system: HOP-92
LXFL 529 = system: LXFL 529
OVCAR-3 = system: OVCAR-3
UACC-62 = system: UACC-62
IGROV-1 = system: IGROV-1
LOX IMVI = system: LOX IMVI
MOLT-4 = system: MOLT-4
OVCAR-4 = system: OVCAR-4
M14 = system: M14
SNB-19 = system: SNB-19
ACHN = system: ACHN
CAKI-1 = system: CAKI-1
BT-549 = system: BT-549
MDA-MB-231 = system: MDA-MB-231

Structure (SMILES) | GI50 (NCI-H522) | GI50 (SW-620) | GI50 (HCT-15) | GI50 (DMS-273) | GI50 (HCT-116) | GI50 (HOP-92) | GI50 (LXFL 529) | GI50 (OVCAR-3) | GI50 (UACC-62) | GI50 (IGROV-1) | GI50 (LOX IMVI) | GI50 (MOLT-4) | GI50 (OVCAR-4) | GI50 (M14) | GI50 (SNB-19) | GI50 (ACHN) | GI50 (CAKI-1) | GI50 (BT-549) | GI50 (MDA-MB-231)
COC1=C(N)C(=O)c2nc(C)ccc2C1=O | 1.74 µM (inactive) | 1.87 µM (inactive) | 1.92 µM | 1.83 µM (inactive) | 1.94 µM (inactive) | 9.95 µM (inactive) | 2.43 µM (inactive) | 2.02 µM (inactive) | 1.75 µM (inactive) | 9.98 µM (inactive) | 0.826 µM (active) | 5.85 µM (inactive) | 1.89 µM (inactive) | 1.88 µM (inactive) | 1.91 µM (inactive) | 1.77 µM (inactive) | 8.3 µM (inactive) |  | 
Cn1c2c(c3ccccc31)CCN(CCCCN1CCN(c3ccccc3)CC1)C2=O | 42 µM (inactive) | 22.8 µM (inactive) | 17.2 µM | 31.4 µM (inactive) | 12.9 µM (inactive) | > 29.1 µM (inactive) | 33.9 µM (inactive) | 57.3 µM (inactive) | 31.8 µM (inactive) | > 76.6 µM (inactive) | 12.8 µM (inactive) | 7.38 µM (inactive) | 42.1 µM (inactive) | 4.58 µM (inactive) | 75.9 µM (inactive) | > 100 µM (inactive) | 56.4 µM (inactive) | 6.58 µM (inactive) | > 10 µM (inactive)
CC1=C2C=CC(=O)C[C@@]2(C)CCC1 | > 100 µM (inactive) | > 100 µM (inactive) | > 100 µM | > 100 µM (inactive) | > 100 µM (inactive) | > 100 µM (inactive) | > 100 µM (inactive) | > 100 µM (inactive) | > 100 µM (inactive) | > 100 µM (inactive) | > 100 µM (inactive) | > 100 µM (inactive) | > 100 µM (inactive) | > 100 µM (inactive) | > 100 µM (inactive) | > 100 µM (inactive) | > 100 µM (inactive) |  | 
CCOc1ccc(NC(=O)C(=O)CC(=O)c2c[n+]([O-])c3cc(C)c(C)cc3[n+]2[O-])cc1 | > 100 µM (inactive) | > 100 µM (inactive) | > 100 µM | > 100 µM (inactive) | > 100 µM (inactive) | > 100 µM (inactive) | > 100 µM (inactive) | > 100 µM (inactive) | > 100 µM (inactive) | > 100 µM (inactive) | > 100 µM (inactive) | > 100 µM (inactive) | > 100 µM (inactive) | > 100 µM (inactive) | > 100 µM (inactive) | > 100 µM (inactive) | > 100 µM (inactive) |  | 
O=C(O)COc1ccc(C(=O)/C(SS/C(C(=O)c2ccc(OCC(=O)O)c(Cl)c2Cl)=C2\C=C(c3ccc(Br)cc3)SS2)=C2/C=C(c3ccc(Br)cc3)SS2)c(Cl)c1Cl | 0.798 µM (active) | 6.73 µM (inactive) | 4.92 µM | 23.8 µM (inactive) | 3.9 µM (inactive) | 3.5 µM (inactive) | 1.29 µM (inactive) | 3.73 µM (inactive) | 4.55 µM (inactive) | 4.99 µM (inactive) | 2.69 µM (inactive) | 3.44 µM (inactive) | 4.51 µM (inactive) | 11.1 µM (inactive) | 5.55 µM (inactive) | 4.58 µM (inactive) | 13.6 µM (inactive) | 8.13 µM (inactive) | 
CC1=CC2=C(C)C3(CC3)[C@@](C)(O)C(=O)C2=C1 | 0.145 µM (active) | > 1 µM (active) | 0.193 µM | 0.189 µM (active) | 0.171 µM (active) | 0.307 µM (active) | 0.223 µM (active) | 0.182 µM (active) | 0.21 µM (active) | 0.29 µM (active) | 0.174 µM (active) | > 1 µM (active) | 0.174 µM (active) | 0.171 µM (active) | 0.243 µM (active) | 0.176 µM (active) | 0.269 µM (active) |  | 
Cc1nc2c(s/c(=N\N)n2-c2ccccc2)c(=O)[nH]1 | > 100 µM (inactive) | > 100 µM (inactive) | > 100 µM | > 100 µM (inactive) | > 100 µM (inactive) | > 100 µM (inactive) | > 100 µM (inactive) | > 100 µM (inactive) | > 100 µM (inactive) | > 100 µM (inactive) | > 100 µM (inactive) | > 100 µM (inactive) | > 100 µM (inactive) | > 100 µM (inactive) | > 100 µM (inactive) | > 100 µM (inactive) | > 100 µM (inactive) |  | 
O=C(NO)C(=O)Nc1ccc(Cl)cc1[N+](=O)[O-] | > 100 µM (inactive) | > 100 µM (inactive) | > 100 µM | > 100 µM (inactive) | > 100 µM (inactive) | 83.9 µM (inactive) | > 100 µM (inactive) | > 100 µM (inactive) | > 100 µM (inactive) | > 100 µM (inactive) | 51.9 µM (inactive) | > 100 µM (inactive) | > 100 µM (inactive) | > 100 µM (inactive) | > 100 µM (inactive) | > 100 µM (inactive) | 66.5 µM (inactive) |  | 
